Results from US20190015518A1, “DRUG DELIVERY COMPOSITIONS AND METHODS” (priority 2016, published 2019).
Several values for one entry are separate records, joined by “and”; a condition that tells them apart may be missing. Equal entries are not always repeated.

Legend:
[1] = human, in vivo; cited from earlier work
[2] = tested on: head and neck squamous cell carcinoma cells, MDA-1986; assay: Cytotoxicity of HA-GluH-Pt (Resazurin blue); type: cell-based, human; conditions: 72 hours
Method: Cell growth inhibition was determined in 96-well plates using head and neck squamous cell carcinoma cells, MDA-1986. […] Plates were seeded with 3,000 cells/well in 90 uL of media (6 replicates/sample). Ten microliters of HA-GluH-Pt conjugate solutions were applied after 24 hours. Resazurin blue in 10 uL of PBS was applied to each well (final concentration 5 uM) after another 72 hours.

[3] = tested on: MDA-1986 cells that overexpress CD44; assay: CD44 specificity and cellular uptake of HA-GluH-Pt; type: cell-based, human; conditions: 30-μg/mL, 6 h
Method: CD44 specificity and cellular internalization mechanism of HA-GluH-Pt was investigated using MDA-1986 cells that overexpress CD44. Chlorpromazine was used as an endocytosis inhibitor. Cells were pretreated with 25-μM chlorpromazine or 10-μg/mL anti-CD44 1 h before the addition of 30-μg/mL HA-GluH-Pt (on platinum basis) and subsequent incubation for 6 h. Cells were trypsinized, lysed by sonication and diluted 20 fold prior to ICP-MS analysis.

[4] = Toxicity of HA-GluH-Pt in mice; type: in vivo, mouse; conditions: single s.c. 20, 40, 67 and 100 mg/kg, 2 months
Method: The toxicity of HA-GluH-Pt was evaluated in blab/C mice. Four blab/C mice were injected subcutaneously with 20, 40, 67 and 100 mg/kg HA-GluH-Pt. The body weights of the animals were checked weekly for 2 months.

[5] = tested on: MDA-1986 (human head and neck squamous cell carcinoma) cells; assay: Anti-proliferative activity (Resazurin Blue, 72 hours); type: cell-based
Method: (§3) MDA-1986 (human head and neck squamous cell carcinoma), 4T1.2-neu (murine breast cancer cells), and A2058 (human melanoma) cells were maintained in Dulbecco's Modified Eagle Medium (DMEM, Corning, Manassas, Va.) with 4.5 g/L glucose, 4.5 g/L L-glutamine, and 10% fetal bovine serum in a humidified incubator at 37° C. and 5% CO2. Cells were seeded into 96-well plates (3,000 cells/well in 90 μL media) and allowed to attach overnight. […] Resazurin Blue (Acros Organics, Geel, Belgium) in PBS was added to each well (5-μM final concentration; 10-μL addition) and incubated at 37° C. for 4 hours. Fluorescence (λex 550 nm, λem 605 nm) was quantified with a SpectraMax Gemini XS plate-reader (Molecular Devices, Sunnyvale, Calif.). The relative growth of cells incubated with each compound concentration was normalized to vehicle-treated controls (100% proliferation). Data from at least three separate experiments performed in duplicate was analyzed using non-linear regression (GraphPad Prism 5.0) to generate IC50 values.

[6] = tested on: A2058 (human melanoma) cells; assay: as above; type: cell-based; conditions: mean ± S.E.M., cisplatin basis
Method: as §3

[7] = tested on: 4T1.2-neu (murine breast cancer cells); assay: as above; type: cell-based; conditions: mean ± S.E.M., cisplatin basis
Method: as §3

white blood cell DNA = assay: Pt-DNA adduct quantitation in white blood cell DNA; type: in vivo, rat; conditions: for Pt-DNA adduct Tmax / Pt-DNA adduct AUC: cisplatin i.v. 10 mg/kg, HA-Lys-Pt s.c. 10 mg/kg cisplatin basis; for Pt-DNA adduct AUC: 10 mg/kg
Method: (§1) Whole blood was centrifuged (1500×g, 5 min., 4° C., no brake). Top layer (plasma) and middle layer (white blood cells) were transferred to new tubes. Plasma was frozen (−20° C.) until analysis. […] The white blood cell pellet was washed twice with cold PBS and re-suspended in 9 mL of white blood cell buffer (10-mM Tris, pH 7.4, 2.3% NaCl, 2-mM EDTA), and 900 μL of 1.1-M NH4HCO3, 900 μL of 10% SDS, and 75 μL of 2% Proteinase K were added and incubated at 42° C. overnight. Then, 3.3 mL of 5-M NaCl was added, samples shaken vigorously, and centrifuged twice (3200×g, 5 min, 4° C.), each time discarding the pellet. DNA was pelleted with 20 mL of ice-cold 100% ethanol and centrifuged (3200×g, 5 min, 4° C.); the DNA pellet was washed twice with 75% ethanol, re-suspended in water, and quantitated. DNA was digested in 1% HNO3 (800 μL total volume) overnight at 70° C. DNA samples were diluted 1:10 in 1% HNO3 and plasma samples were diluted 1:10,000 in 1% HNO3. Diluted samples were analyzed for Pt content using ICP-MS with a calibration curve from 1-1000 ppt.

[8] = tested on: MDA-1986 head and neck tumors; assay: Anticancer efficacy, orthotopic xenograft model of human HNSCC; type: in vivo, mouse; set-up: key to tumor response, Modified RECIST: PR=Partial Response (>30% reduction); PD=Progressive Disease (>30% tumor growth); SD=Stable Disease (neither PR nor PD criteria met)
Method: The MDA-1986 cells were prepared in PBS at a concentration of 2×10^7 cells/mL. Female NU/NU mice were anesthetized under 2% isoflurane in O2, and 50 μL of cell solution was injected into the oral sub-mucosa of the mice using a 27-ga needle. All procedures in the animal study were approved by the Institutional Animal Care and Use Committee of the University of Kansas. Tumor growth was monitored twice weekly by measurement with a digital caliper, and the tumor volume was calculated as 0.52×(width)^2×(length). […] The drugs were given weekly for 3 consecutive weeks.

[9] = tested on: spontaneous canine cancers; conditions: dogs; cited from earlier work
[10] = Viscosity reduction by excipients (rheometer); type: physicochemical; conditions: 37° C.
Method: The viscosity of 29 kDa HA (60 mg/mL), 33HA-Lys (33 kDa HA with linker, 8 mg/mL on HA basis), and 33HA-Lys-Pt (41.7 mg/mL on HA basis) with increasing concentration of mannitol (0, 0.1, 0.5 and 1 M) were measured using a rheometer at 37° C.
(§2) The solutions were incubated in the dark for 20 hours using a CLAY ADAMS® Brand Nutator. After 20 hours, the pH of the solutions were adjusted to pH 6.0 using 1N NaOH. A Brookfield DVIII Ultra Programmable Rheometer was used to measure the viscosity of three 500-μL samples of each solution. Measurements were taken for each at three different RPMs, where the torque ranged from 10-100%. Values for viscosity were not recorded until at least 30 seconds after the motor was started, after the torque readings were stabilized.
as §2, with “to pH 5.0 or 6.0 using” for “to pH 6.0 using”

[11] = Viscosity reduction by excipients (rheometer); type: physicochemical; conditions: sucrose 0.1, 0.5 and 1 M, 37° C.
[12] = HPLC of small molecular platinum species after storage; type: physicochemical; conditions: solution stored at 4° C. for 4 days
Method: Small molecular platinum species including cisplatin, Pt-monoaqua, and Pt-diaqua were quantified by HPLC. The mobile phase was sodium phosphate solution (10-mM, pH 3.0) at a flow rate of 0.25 mL/min on an Alltech® 250 mm×4.6 mm M/M RP8/cation column thermostated at 25° C. […] The filtrate was immediately injected into the HPLC.

Plasma Pt quantitation = conditions: cisplatin i.v. 10 mg/kg; HA-Lys-Pt s.c. 10 mg/kg cisplatin basis
Method: as §1

[13] = Toxicity of HA-Lys-Pt in healthy Balb/c mice; type: in vivo, mouse
Method: The toxicity of HA-Lys-Pt was evaluated in healthy Balb/c mice. […] Another group of Balb/c mice was injected subcutaneously with 8.86 (N=2), 13.3 (N=2), 17.7 (N=2), 20 (N=2), 30 (N=2), and 40 mg/kg (N=1) of the 33HA-Lys-Pt. Their body weights and symptoms of toxicities were monitored twice per week for up to 2 months.

[14] = Transmission electron microscopy, particle diameter; type: physicochemical; conditions: TEM
Text: FIGS. 4A and 4B show the transmission electron microscopy images of HA-Lys-Pt (75 kD HA) before and after salt treatment for 2 weeks. The average diameters of HA-Lys-Pt particles ranged from 25 to 50 nm. […] Intense darkness results from the high electron density of Pt rich area. […] Reduced clustering of the salt treated nanoparticles may be due to reduced hydrophobicity due to release of Pt and availability of charged chelator groups.

N.N.O=C([O-])C1(C(=O)[O-])CCC1.[Pt+2] [carboplatin]
patients in whom thrombocytopenia is dose limiting [1]: 25%

HA-cis-[Pt(NH3)2(Nα-AcetylGluH)] [HA-GluH-Pt]
IC50 [2]: 623 µM | cellular uptake in anti-CD44 antibody and chlorpromazine treated cells [3]: did not differ significantly from the non-treated control | weight loss [4]: Less than 5%

N.N.[Cl][Pt][Cl] [Cisplatin, cisplatin, reference compound]
IC50 ([5]; mean ± S.E.M., cisplatin basis): 8.2 ± 0.6 µM | IC50 ([5]; mean ± S.E.M., cisplatin basis, listed as cisplatin): ~8 µM | IC50 [6]: 6.8 ± 2.7 µM | IC50 ([6]; listed as cisplatin): ~8 µM | IC50 [7]: 9.4 ± 2.5 µM | IC50 ([7]; listed as cisplatin): ~8 µM | Pt-DNA adduct Tmax (white blood cell DNA): 1 h | Pt-DNA adduct AUC (white blood cell DNA): 1466 pg Pt×h/μg DNA and 1255 pg Pt×h/μg DNA | levels of adduct formation over the time course (white blood cell DNA; i.v. 10 mg/kg, 15 minutes to 96 hours): 11-16 pg Pt/μg DNA | tumor response, Modified RECIST ([8]; animal #1): PR (PR=Partial Response (>30% reduction)) | tumor response, Modified RECIST ([8]; animal #2): PD (PD=Progressive Disease (>30% tumor growth)) | tumor response, Modified RECIST ([8]; animal #3): SD | tumor response, Modified RECIST ([8]; animal #4): PR (PR=Partial Response (>30% reduction)) | tumor response, Modified RECIST ([8]; animal #5): PD (PD=Progressive Disease (>30% tumor growth)) | tumor response, Modified RECIST ([8]; animal #6): PR (PR=Partial Response (>30% reduction)) | tumor response, Modified RECIST ([8]; animal #7): PD (PD=Progressive Disease (>30% tumor growth)) | tumor response, Modified RECIST ([8]; animal #8): PD (PD=Progressive Disease (>30% tumor growth)) | rate of partial response (PR) ([8]; three weekly injections): 37.5% | rate of progressive disease (PD) ([8]; three weekly injections): 50% | cure in heterogeneous oral squamous cell carcinomas [9]: 7%

HA-cis-[Pt(NH3)2(N^α-Acetyl-L-Lysine)] [33HA-Lys-Pt]
IC50 ([5]; mean ± S.E.M., cisplatin basis, listed as HA-Lys-Pt 33 kDa): 20.7 ± 2.9 µM | IC50 ([5]; text b180, listed as HA-Lys-Pt 33 kDa): ~40 µM | tumor response, Modified RECIST ([8]; animal #1): PR (PR=Partial Response (>30% reduction)) | tumor response, Modified RECIST ([8]; animal #2): PR (PR=Partial Response (>30% reduction)) | tumor response, Modified RECIST ([8]; animal #3): SD | tumor response, Modified RECIST ([8]; animal #4): PR (PR=Partial Response (>30% reduction)) | tumor response, Modified RECIST ([8]; animal #5): PR (PR=Partial Response (>30% reduction)) | tumor response, Modified RECIST ([8]; animal #6): SD | tumor response, Modified RECIST ([8]; animal #7): PR (PR=Partial Response (>30% reduction)) | tumor response, Modified RECIST ([8]; animal #8): PR (PR=Partial Response (>30% reduction)) | rate of partial response (PR) ([8]; three weekly injections): 75% | effect on viscosity ([10]; mannitol 0.1, 0.5 and 1 M): reduced the viscosity | effect on viscosity ([10]; trehalose 0.1, 0.5 and 1 M): reduced the viscosity | effect on viscosity [11]: reduced the viscosity

HA-cis-[Pt(NH3)2(N^α-Acetyl-L-Lysine)] [HA-Lys-Pt]
Pt-monoaqua and Pt-diaqua detection [12]: Neither Pt-monoaqua nor Pt-diaqua was detected | Pt-DNA adduct Tmax (white blood cell DNA): 48 h | Pt-DNA adduct AUC (white blood cell DNA): 5247 pg Pt×h/μg DNA | plasma Pt Cmax (Plasma Pt quantitation): 4.1±2.4 μg Pt/mL plasma | plasma Pt Tmax (Plasma Pt quantitation): 24 h | body weight recovery ([13]; 20 or 30 mg/kg (on cisplatin basis), weight loss began one-week post treatment): returned to pre-dose weight within another two weeks | body weight recovery ([13]; highest dose (40 mg/kg), compared with 20 or 30 mg/kg): one additional week | acute toxic reactions including lethargy, paralysis, and respiratory depression ([13]; single s.c. injection, any dose level): not observed | weight loss ([8]; single dose of 20 mg/kg): less than 5% | weight loss ([8]; three weekly doses of 20 mg/kg, after the last injection): more than 20% | diameters of nanoparticles ([14]; after salt treatment for 2 weeks): 25-50 nm | diameters of nanoparticles ([14]; freshly made): 25-50 nm

HA6.4-cis-[Pt(NH3)2(Nα-Acetyl-L-lysine)] [HA6.4-lys-Pt]
cell growth inhibition ([5]; highest dose tested (300 μM)): < 50% | IC50 ([5]; mean ± S.E.M., cisplatin basis): > 500 µM
